Reference: the NIST ThermoML archive (doi:10.1016/j.tca.2006.01.020)

Assay: molar heat capacity at constant pressure
Settings: 101.33 kPa, Crystal, Small (less than 1 g) adiabatic calorimetry

[Ba+2].[Ce+4].[O-2].[O-2].[O-2] [barium cerium(IV) oxide]
Settings | molar heat capacity at constant pressure [J/K/mol]
45.36 K | 25.5
46.27 K | 26.2
47.24 K | 26.9
48.19 K | 27.7
49.16 K | 28.5
50 K | 29.66
50.15 K | 29.4
51.15 K | 30.2
52.16 K | 31
53.16 K | 31.8
54.16 K | 32.6
55.16 K | 33.5
56.16 K | 34.3
57.16 K | 35.1
58.15 K | 35.9
59.14 K | 36.7
60 K | 37.42
60.13 K | 37.4
61.12 K | 38.2
62.11 K | 39
63.1 K | 39.7
64.09 K | 40.5
65.08 K | 41.3
66.07 K | 42
67.07 K | 42.8
68.06 K | 43.6
69.05 K | 44.3
70 K | 44.66
70.05 K | 45
71.04 K | 45.8
72.03 K | 46.6
73.03 K | 47.3
74.02 K | 47.8
75.02 K | 48.6
76.02 K | 49.2
77.02 K | 49.9
78.02 K | 50.6
79.01 K | 50.7
80 K | 51.2
80.01 K | 51.5
80.29 K | 51
81.69 K | 51.5
82.49 K | 52
83.31 K | 52.5
84.14 K | 53.1
84.98 K | 53.7
85.82 K | 54.2
86.68 K | 54.7
87.55 K | 55.3
88.43 K | 55.8
89.31 K | 56.3
90 K | 57.18
90.21 K | 56.9
91.11 K | 57.4
92.02 K | 58
92.94 K | 58.5
93.87 K | 59.1
94.81 K | 59.7
95.75 K | 60.2
96.71 K | 60.8
97.68 K | 61.3
98.65 K | 61.9
99.64 K | 62.4
100 K | 62.7
100.64 K | 63
101.64 K | 63.6
102.66 K | 64.1
103.69 K | 64.7
104.72 K | 65.2
105.77 K | 65.8
106.83 K | 66.4
107.9 K | 66.9
108.97 K | 67.4
110.06 K | 67.7
111.16 K | 68.5
112.27 K | 69.1
113.4 K | 69.7
114.53 K | 70.2
115.68 K | 70.8
116.83 K | 71.4
118 K | 71.9
119.18 K | 72.4
120 K | 72.61
120.37 K | 73
121.58 K | 73.5
122.79 K | 74
124.02 K | 74.6
125.26 K | 75.1
126.51 K | 75.7
127.77 K | 76.2
129.05 K | 76.8
130.34 K | 77.3
131.64 K | 77.9
132.96 K | 78.4
134.29 K | 78.9
135.63 K | 79.4
136.99 K | 79.9
138.36 K | 80.4
139.74 K | 80.9
140 K | 81.2
141.54 K | 81.6
142.95 K | 82.2
144.38 K | 82.8
145.83 K | 83.2
147.28 K | 83.8
148.76 K | 84.5
150.25 K | 85
151.75 K | 85.6
153.27 K | 86.1
154.8 K | 86.6
156.34 K | 87.3
157.91 K | 87.8
159.49 K | 88.2
160 K | 88.53
161.08 K | 88.9
162.69 K | 89.3
164.32 K | 89.9
165.96 K | 90.3
167.62 K | 90.8
169.3 K | 91.2
170.99 K | 91.8
172.7 K | 92.4
174.43 K | 92.9
176.17 K | 93.5
177.93 K | 94
179.71 K | 94.3
180 K | 94.63
181.5 K | 95.2
183.31 K | 95.3
185.15 K | 95.9
187 K | 96.4
188.86 K | 97.1
190.75 K | 97.8
192.65 K | 98
194.58 K | 98.2
196.52 K | 98.2
198.48 K | 98.6
200 K | 99.59
200.46 K | 99.2
202.45 K | 99.5
204.43 K | 100
206.42 K | 101
208.4 K | 101.1
210.39 K | 101.6
212.37 K | 101.7
214.35 K | 102.5
216.33 K | 102.8
218.31 K | 103.5
220 K | 103.6
220.3 K | 103.8
222.28 K | 103.6
224.26 K | 104.2
226.23 K | 105.1
228.22 K | 105
230.2 K | 105.5
232.17 K | 106.2
234.15 K | 106.2
236.14 K | 106.1
238.1 K | 106.8
240 K | 106.9
240.08 K | 106.6
242.05 K | 107.3
244.02 K | 107.1
245.99 K | 107.7
249.95 K | 108.3
251.89 K | 108.9
253.89 K | 109.5
255.86 K | 109.5
257.84 K | 109.2
259.8 K | 110.2
260 K | 109.9
261.77 K | 109.7
263.74 K | 110.1
267.67 K | 111
269.63 K | 110.4
271.61 K | 110.6
273.57 K | 111.4
275.53 K | 111.7
277.5 K | 111.9
279.46 K | 112.8
280 K | 112.6
281.42 K | 112.8
283.39 K | 112
285.35 K | 114
287.3 K | 114.2
289.27 K | 113.1
291.22 K | 113.8
293.17 K | 114.3
294.05 K | 113.5
297.48 K | 114.1
298.15 K | 114.8
299.16 K | 114.5
300 K | 114.9
